{"source": "patent US20240115654A1", "about": "“INTRAVENOUS ADMINISTRATION OF ENGINEERED ANTIMICROBIAL AMPHIPHILIC PEPTIDES” (priority 2021, published 2024)", "settings": "for increase of AUC0-t / increase of mean AUC0-24: Cohorts 1 to 3", "key": {"[1]": {"settings": "Cohort 4, 0.5 mg/kg IV infusion 2 hours, Max"}, "[2]": {"settings": "Cohort 4, 0.5 mg/kg IV infusion 2 hours, Mean"}, "[3]": {"settings": "Cohort 4, 0.5 mg/kg IV infusion 2 hours, Min"}, "[4]": {"settings": "Cohort 4, 0.5 mg/kg IV, infusion 2 hours, cohort Geometric Mean"}, "[5]": {"settings": "Cohort 4, 0.5 mg/kg IV, infusion 2 hours, cohort Mean"}, "[6]": {"settings": "Cohort 4, 0.5 mg/kg IV, infusion 2 hours, cohort Median"}, "[7]": {"settings": "Cohort 5, 1 mg/kg IV infusion 4 hours, Max"}, "[8]": {"settings": "Cohort 5, 1 mg/kg IV infusion 4 hours, Min"}, "[9]": {"settings": "Phase 1 subjects, 1-hr IV infusion"}, "[10]": {"settings": "over the 5-fold increase in dose"}, "[11]": {"settings": "single 1-hour infusion 0.05 mg/kg, Geometric Mean"}, "[12]": {"settings": "single 1-hour infusion 0.05 mg/kg, Max"}, "[13]": {"settings": "single 1-hour infusion 0.05 mg/kg, Mean"}, "[14]": {"settings": "single 1-hour infusion 0.05 mg/kg, Median"}, "[15]": {"settings": "single 1-hour infusion 0.05 mg/kg, Min"}, "[16]": {"settings": "single 1-hour infusion 0.05 mg/kg, individual subjects"}}, "note": "Values joined by “and” are separate entries in the source; they are usually repeats but may differ in a detail not shown here. Equal entries are not always repeated. Where two headings read alike, the source gives them in different places. Peptide text beside a SMILES is read from it.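 Also: phase 1 study in human subjects given one IV dose of the peptide, enrolled in sequential ascending-dose cohorts and randomized to peptide or placebo.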", "data": [{"smiles": "CC(C)[C@H](NC(=O)[C@H](Cc1c[nH]c2ccccc12)NC(=O)[C@H](CCCNC(=N)N)NC(=O)[C@H](CCCNC(=N)N)NC(=O)[C@@H](NC(=O)[C@@H](NC(=O)[C@H](CCCNC(=N)N)NC(=O)[C@@H](NC(=O)[C@@H](NC(=O)[C@H](CCCNC(=N)N)NC(=O)[C@H](CCCNC(=N)N)NC(=O)[C@H](Cc1c[nH]c2ccccc12)NC(=O)[C@@H](NC(=O)[C@H](CCCNC(=N)N)NC(=O)[C@H](CCCNC(=N)N)NC(=O)[C@@H](NC(=O)[C@H](CCCNC(=N)N)NC(=O)[C@H](CCCNC(=N)N)NC(=O)[C@@H](NC(=O)[C@H](Cc1c[nH]c2ccccc12)NC(=O)[C@H](CCCNC(=N)N)NC(=O)[C@@H](N)CCCNC(=N)N)C(C)C)C(C)C)C(C)C)C(C)C)C(C)C)C(C)C)C(C)C)C(=O)N[C@@H](CCCNC(=N)N)C(=O)N[C@@H](CCCNC(=N)N)C(N)=O", "note": "[SEQ ID NO: 1] (H-RRWVRRVRRVWRRVVRVVRRWVRR-NH2)", "values": [{"measurement": "AUC(0-inf)", "setting": "[1]", "value": 13500, "unit": "ng·h/mL"}, {"measurement": "AUC(0-t)", "setting": "[1]", "value": 12200, "unit": "ng·h/mL"}, {"measurement": "AUCextrap", "setting": "[1]", "value": 12.8, "unit": "%"}, {"measurement": "Cmax", "setting": "[1]", "value": 2310, "unit": "ng/mL"}, {"measurement": "t1/2", "setting": "[1]", "value": 21.1, "unit": "h"}, {"measurement": "AUCextrap", "setting": "[2]", "value": 8.22, "unit": "%"}, {"measurement": "CL/F", "setting": "[2]", "value": 1.07, "unit": "mL/min/kg"}, {"measurement": "AUCextrap", "setting": "Cohort 4, 0.5 mg/kg IV infusion 2 hours, Median", "value": 8.81, "unit": "%"}, {"measurement": "AUC0-24", "setting": "[3]", "value": 3190, "unit": "ng·h/mL"}, {"measurement": "AUC(0-inf)", "setting": "[3]", "value": 3870, "unit": "ng·h/mL"}, {"measurement": "AUC(0-t)", "setting": "[3]", "value": 3440, "unit": "ng·h/mL"}, {"measurement": "AUCextrap", "setting": "[3]", "value": 3.65, "unit": "%"}, {"measurement": "CL/F", "setting": "[3]", "value": 0.615, "unit": "mL/min/kg"}, {"measurement": "Cmax", "setting": "[3]", "value": 994, "unit": "ng/mL"}, {"measurement": "t1/2", "setting": "[3]", "value": 11.5, "unit": "h"}, {"measurement": "Plasma Concentration by Nominal Time from Start of Infusion, Mean", "setting": "Cohort 4, 0.5 mg/kg IV, infusion 2 hours, 0.0 h, cohort mean N 6", "value": 0.00, "unit": "ng/mL"}, {"measurement": "Plasma Concentration by Nominal Time from Start of Infusion", "setting": "Cohort 4, 0.5 mg/kg IV, infusion 2 hours, 0.0 h, individual subjects", "value": 0.00, "unit": "ng/mL"}, {"measurement": "Plasma Concentration by Nominal Time from Start of Infusion", "setting": "Cohort 4, 0.5 mg/kg IV, infusion 2 hours, 4.0 h, individual subjects", "value": "457 ng/mL and 502 ng/mL and 614 ng/mL"}, {"measurement": "Plasma Concentration by Nominal Time from Start of Infusion", "setting": "Cohort 4, 0.5 mg/kg IV, infusion 2 hours, 6.0 h, individual subjects", "value": "249 ng/mL and 448 ng/mL and 472 ng/mL"}, {"measurement": "Plasma Concentration by Nominal Time from Start of Infusion", "setting": "Cohort 4, 0.5 mg/kg IV, infusion 2 hours, 8.0 h, individual subjects", "value": "164 ng/mL and 311 ng/mL and 377 ng/mL"}, {"measurement": "AUCextrap", "setting": "[4]", "value": 7.38, "unit": "%"}, {"measurement": "CL/F", "setting": "[4]", "value": 0.977, "unit": "mL/min/kg"}, {"measurement": "Tlast", "setting": "[4]", "value": 46, "unit": "h"}, {"measurement": "λz", "setting": "[4]", "value": 0.0443, "unit": "h⁻¹"}, {"measurement": "AUCextrap", "setting": "[5]", "value": 8.22, "unit": "%"}, {"measurement": "CL/F", "setting": "[5]", "value": 1.07, "unit": "mL/min/kg"}, {"measurement": "Tlast", "setting": "[5]", "value": 46, "unit": "h"}, {"measurement": "λz", "setting": "[5]", "value": 0.0457, "unit": "h⁻¹"}, {"measurement": "AUCextrap", "setting": "[6]", "value": 8.81, "unit": "%"}, {"measurement": "CL/F", "setting": "[6]", "value": 0.892, "unit": "mL/min/kg"}, {"measurement": "Tlast", "setting": "[6]", "value": 50, "unit": "h"}, {"measurement": "λz", "setting": "[6]", "value": 0.0461, "unit": "h⁻¹"}, {"measurement": "Tlast", "setting": "Cohort 4, 0.5 mg/kg IV, infusion 2 hours, individual subjects", "value": "38 h (2×) and 50 h (4×)"}, {"measurement": "Plasma Concentration by Nominal Time from Start of Infusion, Mean", "setting": "Cohort 5, 1 mg/kg IV 4-hr infusion, 0.0 h, cohort mean", "value": 0.00, "unit": "ng/mL"}, {"measurement": "AUCextrap", "setting": "Cohort 5, 1 mg/kg IV infusion 4 hours, Geometric Mean", "value": 8.61, "unit": "%"}, {"measurement": "AUC0-24", "setting": "[7]", "value": 28800, "unit": "ng·h/mL"}, {"measurement": "AUC(0-inf)", "setting": "[7]", "value": 25700, "unit": "ng·h/mL"}, {"measurement": "AUC(0-t)", "setting": "[7]", "value": 34300, "unit": "ng·h/mL"}, {"measurement": "AUCextrap", "setting": "[7]", "value": 17.8, "unit": "%"}, {"measurement": "t1/2", "setting": "[7]", "value": 28.3, "unit": "h"}, {"measurement": "AUCextrap", "setting": "Cohort 5, 1 mg/kg IV infusion 4 hours, Mean", "value": 10.8, "unit": "%"}, {"measurement": "AUCextrap", "setting": "Cohort 5, 1 mg/kg IV infusion 4 hours, Median", "value": 11.6, "unit": "%"}, {"measurement": "AUC0-24", "setting": "[8]", "value": 14000, "unit": "ng·h/mL"}, {"measurement": "AUC(0-inf)", "setting": "[8]", "value": 17400, "unit": "ng·h/mL"}, {"measurement": "AUC(0-t)", "setting": "[8]", "value": 15800, "unit": "ng·h/mL"}, {"measurement": "AUCextrap", "setting": "[8]", "value": 2.43, "unit": "%"}, {"measurement": "Cmax", "setting": "[8]", "value": 2030, "unit": "ng/mL"}, {"measurement": "t1/2", "setting": "[8]", "value": 9.59, "unit": "h"}, {"measurement": "AUC(0-inf)", "setting": "Cohort 5, 1 mg/kg IV infusion 4 hours, individual subject", "value": "17400 ng·h/mL and 19900 ng·h/mL and 25700 ng·h/mL"}, {"measurement": "actual dose-level exposure AUC0-24 relative to that predicted from animal data", "setting": "[9]", "value": "5-10 ×"}, {"measurement": "actual dose-level exposure Cmax relative to that predicted from animal data", "setting": "[9]", "value": "about 4 ×"}, {"measurement": "dose proportionality of AUC0-t", "setting": "dose range 0.05 to 0.5 mg/kg, slope not significantly different from 1", "value": "increased proportionally with dose increase"}, {"measurement": "intercept estimate, log AUC0-∞ versus log dose", "setting": "dose range 0.05 to 1 mg/kg", "value": 6.04}, {"measurement": "slope estimate, log AUC0-∞ versus log dose", "setting": "dose range 0.05 to 1 mg/kg, 90% CI=0.78 to 1.03", "value": 0.91}, {"measurement": "increase of AUC0-t", "setting": "[10]", "value": 4.2, "unit": "fold"}, {"measurement": "increase of mean AUC0-24", "setting": "[10]", "value": 3.6, "unit": "fold"}, {"measurement": "increase of AUC0-t", "setting": "over the […] increase in dose", "value": 2.2, "unit": "fold"}, {"measurement": "increase of mean AUC0-24", "setting": "over the […] increase in dose", "value": 2.0, "unit": "fold"}, {"measurement": "AUCextrap", "setting": "[11]", "value": 8.36, "unit": "%"}, {"measurement": "Tlast", "setting": "[11]", "value": 24, "unit": "h"}, {"measurement": "λz", "setting": "[11]", "value": 0.0946, "unit": "h⁻¹"}, {"measurement": "AUC0-24", "setting": "[12]", "value": 1610, "unit": "ng·h/mL"}, {"measurement": "AUC(0-inf)", "setting": "[12]", "value": 1820, "unit": "ng·h/mL"}, {"measurement": "AUC(0-t)", "setting": "[12]", "value": 1720, "unit": "ng·h/mL"}, {"measurement": "AUCextrap", "setting": "[12]", "value": 12.1, "unit": "%"}, {"measurement": "CL/F", "setting": "[12]", "value": 0.595, "unit": "mL/min/kg"}, {"measurement": "Cmax", "setting": "[12]", "value": 341, "unit": "ng/mL"}, {"measurement": "Tlast", "setting": "[12]", "value": 37, "unit": "h"}, {"measurement": "t1/2", "setting": "[12]", "value": 8.59, "unit": "h"}, {"measurement": "λz", "setting": "[12]", "value": 0.105, "unit": "h⁻¹"}, {"measurement": "AUCextrap", "setting": "[13]", "value": 8.87, "unit": "%"}, {"measurement": "Tlast", "setting": "[13]", "value": 25, "unit": "h"}, {"measurement": "λz", "setting": "[13]", "value": 0.095, "unit": "h⁻¹"}, {"measurement": "AUCextrap", "setting": "[14]", "value": 8.12, "unit": "%"}, {"measurement": "Tlast", "setting": "[14]", "value": 25, "unit": "h"}, {"measurement": "λz", "setting": "[14]", "value": 0.0951, "unit": "h⁻¹"}, {"measurement": "AUC0-24", "setting": "[15]", "value": 619, "unit": "ng·h/mL"}, {"measurement": "AUC(0-t)", "setting": "[15]", "value": 515, "unit": "ng·h/mL"}, {"measurement": "AUCextrap", "setting": "[15]", "value": 4.54, "unit": "%"}, {"measurement": "CL/F", "setting": "[15]", "value": 0.457, "unit": "mL/min/kg"}, {"measurement": "Cmax", "setting": "[15]", "value": 170, "unit": "ng/mL"}, {"measurement": "Tlast", "setting": "[15]", "value": 13, "unit": "h"}, {"measurement": "t1/2", "setting": "[15]", "value": 6.62, "unit": "h"}, {"measurement": "λz", "setting": "[15]", "value": 0.0807, "unit": "h⁻¹"}, {"measurement": "AUC(0-inf)", "setting": "[16]", "value": "1490 ng·h/mL and 1800 ng·h/mL and 1820 ng·h/mL"}, {"measurement": "CL/F", "setting": "[16]", "value": "0.562 mL/min/kg and 0.463 mL/min/kg and 0.457 mL/min/kg"}, {"measurement": "Tlast", "setting": "[16]", "value": "25 h (4×) and 13 h and 37 h"}]}]}
